Twelve compounds from US7829584B2, “Pyridines and pyridine N-oxides as modulators of thrombin” (Janssen Pharmaceutica NV, priority 2006, dated 2010) can be followed below.

In the test the target is T1, Human α-thrombin (Homo sapiens, UniProt P00734).
T1 construct: Human α-thrombin (Enzyme Research Laboratories HT1002a); purchased Enzyme Research Laboratories (South Bend, Ind.) HT1002a
Nature of the test: In vitro inhibition of purified enzyme, kinetic analysis by chromogenic substrates (Thrombin assay). The test is classed as biochemical. The settings on record: substrate SucAAPR pNA 100 uM, 37° C., pH 7.5, 405 nm, thrombin 1.1 nM. As for the experimental part: In Vitro Inhibition of Purified Enzyme
Reagents: All buffer salts were obtained from Sigma Chemical Company (St. Louis, Mo.), and were of the highest purity available.
Human α-thrombin, was obtained from Enzyme Research Laboratories (South Bend, Ind.).
Kinetic Analysis by Chromogenic Substrates
Compounds were assessed for their inhibitory activity toward Thrombin by kinetic analysis using para-nitroaniline chromogenic substrates monitored at 405 nm. The assay buffer employed was 50 mM HEPES, pH 7.5, 200 mM NaCl, and fresh 0.05% n-octyl β-d-glucopyranoside. DMSO was present at a final concentration of 4%, derived from the substrate and inhibitory compound stock solutions. […] Reactions were initiated by addition of 10 μL protease, and increase in absorbance due to proteolytic cleavage of substrate was kinetically monitored at 37° C., 405 nm with a Molecular Devices Spectramax 340 plate reader. Initial velocities were determined by analysis of the initial linear portion of the reactions. Plots of vo/vi vs. inhibitor concentration, where vo=velocity without inhibitor, and vi=inhibited velocity, were fit to a linear regression line, and IC50 was determined from the reciprocal of the slope. Ki was calculated from IC50 using the Ki factor specific for the assay as: Ki=IC50×Ki factor, or Ki=IC50×(1/(1+[S]/Km)), where S is the substrate concentration in the assay, and Km is the Michaelis constant for the substrate (Cheng Y and Prusoff W H (1973) Biochem Pharmacol 22: 3099-3108).
The Thrombin assay incorporated substrate SucAAPR pNA (Bachem L-1720, [S]=100 uM final, Km=320 μM, Ki factor=0.76). Substrate in DMSO (10.7 mM) was diluted in assay buffer 100-fold for 100 μM final. Human α-thrombin (Enzyme Research Laboratories HT1002a) was diluted 1500-fold in assay buffer for a final assay concentration of 1.1 nM.

As a reminder, the IC50 is the point on the concentration scale where inhibition reaches its midpoint. A lower IC50 goes with greater potency.

Compound `N#Cc1ccc(NCC(F)(F)c2ccccn2)[n+]([O-])c1CC(=O)NCc1ccc2onc(N)c2c1` [Cpd 3, 3-cyano-6-(2,2-difluoro-2-pyridin-2-yl-ethylamino)-2-(3-Amino-benzo[d]isoxazol-5-ylmethyl)aminocarbonylmethyl-pyridine 1-oxide] came in with an IC50 of around 280 nM. The value for `N#Cc1ccc(NCC(F)(F)c2ccc(F)cc2)[n+]([O-])c1CC(=O)NCc1cnccc1-n1cncn1` [Cpd 8, 3-cyano-6-(2,2-difluoro-2-(4-fluoro-phenyl)-ethylamino)-2-(4-[1,2,4]triazol-1-yl-pyridin-3-ylmethyl)aminocarbonylmethyl-pyridine 1-oxide] was around 3.4 nM; that for `N=C(N)NOCCNC(=O)Cc1c(Cl)ccc(NCC(F)(F)c2ccccc2)[n+]1[O-]` [Cpd 2, 3-chloro-6-(2,2-difluoro-2-phenyl-ethylamino)-2-{2-[(aminoiminomethyl)aminooxy]ethyl}aminocarbonylmethyl-pyridine 1-oxide] was around 0.54 nM; that for `N#Cc1ccc(NCC(F)(F)c2ccccn2)[n+]([O-])c1CC(=O)NCc1cccnc1-n1cncn1` [Cpd 10, 3-cyano-6-(2,2-difluoro-2-pyridin-2-yl-ethylamino)-2-(2-[1,2,4]triazol-1-yl-pyridin-3-ylmethyl)aminocarbonylmethyl-pyridine 1-oxide] was around 170 nM. For the compound `N=C(N)NOCCNC(=O)Cc1nc(NCC(F)(F)c2ccccc2)ccc1Cl` [Cpd 11, N-{2-[(aminoiminomethyl)aminooxy]ethyl}-2-[3-chloro-6-(2,2-difluoro-2-phenyl-ethylamino)-pyridin-2-yl]-acetamide], the IC50 was around 370 nM. In the case of `N#Cc1ccc(NCC(F)(F)c2ccccc2)[n+]([O-])c1CC(=O)NCCONC(=N)N` [Cpd 1, 3-cyano-6-(2,2-difluoro-2-phenyl-ethylamino)-2-{2-[(aminoiminomethyl)aminooxy]ethyl}aminocarbonylmethyl-pyridine 1-oxide], the IC50 is around 0.13 nM. For the compound `N#Cc1ccc(NCC(F)(F)c2ccccn2)[n+]([O-])c1CC(=O)NCc1cncc(Cl)c1` [Cpd 12, 3-cyano-6-(2,2-difluoro-2-pyridin-2-yl-ethylamino)-2-(5-chloro-pyridin-3-ylmethyl)aminocarbonylmethyl-pyridine 1-oxide], the IC50 was around 66 nM. Compound `N#Cc1ccc(NCC(F)(F)c2ccccn2)[n+]([O-])c1CC(=O)NCc1ccc2c(N)noc2c1` [Cpd 4, 3-cyano-6-(2,2-difluoro-2-pyridin-2-yl-ethylamino)-2-(3-amino-benzo[d]isoxazol-6-ylmethyl)aminocarbonylmethyl-pyridine 1-oxide] gave an IC50 of around 6.1 nM. Compound `N#Cc1ccc(NCC(F)(F)c2ccccn2)[n+]([O-])c1CC(=O)NCc1c(F)cccc1-n1cncn1` [Cpd 7, 3-cyano-6-(2,2-difluoro-2-pyridin-2-yl-ethylamino)-2-(2-[1,2,4]triazol-1-yl-6-fluoro-phenylmethyl)aminocarbonylmethyl-pyridine 1-oxide] had an IC50 of around 0.44 nM. With `N#Cc1ccc(NCC(F)(F)c2ccccn2)[n+]([O-])c1CC(=O)NCc1ccc2ccnc(N)c2c1` [Cpd 5, 3-cyano-6-(2,2-difluoro-2-pyridin-2-yl-ethylamino)-2-(1-Amino-isoquinolin-7-ylmethyl)aminocarbonylmethyl-pyridine 1-oxide] the figure was around 42 nM; with `N#Cc1ccc(NCC(F)(F)c2ncccn2)[n+]([O-])c1CC(=O)NCc1cnccc1-n1cncn1` [Cpd 9, 3-cyano-6-(2,2-difluoro-2-pyrimidin-2-yl-ethylamino)-2-(4-[1,2,4]triazol-1-yl-pyridin-3-ylmethyl)aminocarbonylmethyl-pyridine 1-oxide], around 200 nM.

`N#Cc1ccc(NCC(F)(F)c2ccccn2)[n+]([O-])c1CC(=O)NCc1cnccc1-n1cncn1` [Cpd 6, 3-cyano-6-(2,2-difluoro-2-pyridin-2-yl-ethylamino)-2-(4-[1,2,4]triazol-1-yl-pyridin-3-ylmethyl)aminocarbonylmethyl-pyridine 1-oxide] displayed an IC50 of around 3.3 nM.
